# In US7094801B2, “Chalcone derivatives and their use to treat diseases” (Atherogenics, Inc., priority 2001, dated 2006):
# Structures can show the parent of a compound that is named as a salt.
# Tested on: VCAM-1
# Assay: In Vitro VCAM-1 Assay (TNF-α stimulated HAEC or HPAEC, cell ELISA)
# Assay type: cell-based, human
# Details: Homo sapiens, 16 h, TNF-α (1 ng/ml) stimulated HAEC or HPAEC, approximately 16 hours
# Description: Cell Culture and compound dosing: Cultured primary human aortic (HAEC) or pulmonary (HPAEC) endothelial cells were obtained from Clonetics, Inc., and were used below passage 9. Cells were seeded in 96 well plates such that they would reach 90–95% confluency by the following day. On the following day the cells were stimulated with TNF-α (1 ng/ml) in the presence or absence of compounds dissolved in DMSO such that the final concentration of DMSO is 0.25% or less. To establish a dose curve for each compound, four concentrations in 2- to 5-fold increments were used. Cells were exposed to TNF-α and compounds for approximately 16 hours. The next day the cells were examined under microscope to score for visual signs of toxicity or cell stress.
# Following 16 hr exposure to TNF-α and compound the media was discarded and the cells were washed once with Hanks Balanced Salt Solution (HBSS)/Phosphate buffered saline (PBS) (1:1). Primary antibodies against VCAM-1 (0.25 μg/ml in HBSS/PBS+5% FBS) were added and incubated for 30–60 minutes at 37° C. Cells were washed with HBSS/PBS three times, and secondary antibody Horse Radish Peroxidase (HRP)-conjugated goat anti-mouse IgG (1:500 in HBSS/PBS+5% FBS) were added and incubated for 30 minutes at 37° C. Cells were washed with HBSS/PBS four time and TMB substrate were added and incubated at room temperature in the dark until there was adequate development of blue color. The length of time of incubation was typically 5–15 minutes. 2N sulfuric acid was added to stop the color development and the data was collected by reading the absorbance on a BioRad ELISA plate reader at OD 450 nm. The results are expressed as IC50 values (the concentration (micromolar) of compound required to inhibit 50% of the maximal response of the control sample stimulated by TNF-α only).
row,Structure (SMILES),IC50 [µM]
1,"COc1cc(OC)c(-c2cccs2)cc1/C=C/C(=O)c1ccc(C(C)(C)C(=O)O)cc1 [Example 77, 2-{4-[3E-(2,4-Dimethoxy-5-thiophen-2-yl-phenyl)-acryloyl]-phenyl}-2-methyl-propionic acid]",< 5
2,"COc1cc(OC)c(-c2cc3ccccc3s2)cc1/C=C/C(=O)c1ccc(NC2OC(CO)C(O)C(O)C2O)cc1 [Example 99, 3E-(5-Benzo[b]thiophen-2-yl-2,4-dimethoxy-phenyl)-1-[4-(D-glucopyranosylamino)-phenyl]-propenone]",> 10
3,"COc1cc(/C=C/C(=O)c2ccc3c(ccn3C)c2)cc(-c2cccs2)c1OC [Example 28, 3E-(3,4-Dimethoxy-5-thiophen-2-yl-phenyl)-1-(1-methyl-1H-indol-5-yl)-propenone]",< 5
4,"COC(=O)c1ccc(-c2cc(/C=C/C(=O)c3ccc(C(=O)O)cc3)c(OC)cc2OC)s1 [Example 51, 5-{5-[3-(4-Carboxy-phenyl)-3-oxo-E-propenyl]-2,4-dimethoxy-phenyl}-thiophene-2-carboxylic acid methyl ester]",< 5
5,"COc1cc(OC)c(-c2cc3ccccc3s2)cc1/C=C/C(=O)c1ccc(C(=O)O)cc1 [Example 120, 4-[3E-(5-Benzo[b]thien-2-yl-2,4-dimethoxyphenyl)-acryloyl]-benzoic acid, N-methyl-D-glucamine salt]",< 1
6,"CCOC(=O)C1(C(=O)OCC)Oc2ccc(C(=O)/C=C/c3cc(OC)c(OC)c(-c4cccs4)c3)cc2O1 [Example 103, 5-[3E-(3,4-Dimethoxy-5-thiophen-2-yl-phenyl)-acryloyl]-benzo[1,3]dioxole-2,2-dicarboxylic acid, diethyl ester]",> 10
7,"COc1cc(OC)c(-c2cc3ccccc3s2)cc1/C=C/C(=O)c1ccc(C(=O)NCCN2CCOCC2)cc1 [Example 90, 4-[3E-(5-Benzo[b]thiophen-2-yl-2,4-dimethoxy-phenyl)-acryloyl]-N-(2-morpholin-4-yl-ethyl)-benzamide]",< 1
8,"COc1cc(OC)c(-c2ccc(C(=O)O)s2)cc1/C=C/C(=O)c1ccc(C(=O)O)cc1 [Example 52, 5-{5-[3-(4-Carboxy-phenyl)-3-oxo-E-propenyl]-2,4-dimethoxy-phenyl}-thiophene-2-carboxylic acid]",> 10
9,"COc1cc(OC)c(-c2cc3ccccc3s2)cc1/C=C/C(=O)c1ccc(S(N)(=O)=O)cc1 [Example 80, 4-[3E-(5-Benzo[b]thiophen-2-yl-2,4-dimethoxy-phenyl)-acryloyl]-benzenesulfonamide]",< 5
10,"O=C(/C=C/c1ccc(-c2cccs2)cc1)c1ccc(SC(F)(F)C(=O)O)cc1 [Example 25, Difluoro-{4-[3E-(4-thiophen-2-yl-phenyl)-acryloyl]-phenylthio}-acetic acid, sodium salt]",> 10
11,"COc1cc(/C=C/C(=O)c2ccc(N(C)S(C)(=O)=O)cc2)cc(-c2cccs2)c1OC [Example 98, N-{4-[3E-(3,4-Dimethoxy-5-thiophen-2-yl-phenyl)-acryloyl]-phenyl}-N-methyl-methanesulfonamide]",< 5
12,"O=C(O)c1ccc(C(=O)/C=C/c2cc(-c3cccs3)ccc2N2CCCC2)cc1 [Example 63, 4-[3E-(2-Pyrrolidin-1-yl-5-thiophen-2-yl-phenyl)-acryloyl]-benzoic acid]",< 10

# Tested on: not given
# Assay: not given
# Details: not given
row,Structure (SMILES),melting point
1,"COc1cc(OC)c(-c2cc3ccccc3s2)cc1/C=C/C(=O)c1ccc(C(=O)O)cc1 (as salt: salt) [Example 120, 4-[3E-(5-Benzo[b]thien-2-yl-2,4-dimethoxyphenyl)-acryloyl]-benzoic acid, N-methyl-D-glucamine salt]",75 to 80 °C
2,"O=C([O-])c1ccc(/C=C/C(=O)c2ccc(-c3cccs3)cc2)cc1.[Na+] [Example 17, 4-[3-{4-(thien-2-yl)-phenyl}-3-oxo-E-propenyl]-benzoic acid, sodium salt]",> 260 °C
3,"COc1cc(OC)c(C2C=CCO2)cc1/C=C/C(=O)c1ccc(S(N)(=O)=O)cc1 (centres unmarked) [Example 121, 4-{3E-[5-(2,5-Dihydro-furan-2-yl)-2,4-dimethoxy-phenyl]-acryloyl}-benzenesulfonamide]",194 to 195 °C
4,"COc1cc(OC)c(-c2nc3cccnc3[nH]2)cc1/C=C/C(=O)c1ccc(S(N)(=O)=O)cc1 [Example 112, 4-{3E-[5-(3H-Imidazo[4,5-b]pyridin-2-yl)-2,4-dimethoxy-phenyl]-acryloyl}-benzenesulfonamide]",> 260 °C
5,"COc1cc(OC)c(-c2cc3ccccc3s2)cc1/C=C/C(=O)c1ccc(C(=O)[O-])cc1.[Na+] [Example 56, 4-[3E-(5-Benzo[b]thiophen-2-yl-2,4-dimethoxy-phenyl)-acryloyl]-benzoic acid, sodium salt]",> 235 °C
6,"COc1cc(OC(C)(C)C(=O)O)c(/C=C/C(=O)c2ccc(C(=O)O)cc2)cc1-c1cccs1 [Example 59, 4-{3E-[2-(1-Carboxy-1-methyl-ethoxy)-4-methoxy-5-thiophen-2-yl-phenyl]-acryloyl}-benzoic acid]",223 to 225 °C
7,"COc1cc(Oc2cccc(C)n2)c(/C=C/C(=O)c2ccc(S(N)(=O)=O)cc2)cc1-c1cccs1 [Example 122, 4-{3E-[4-Methoxy-2-(6-methyl-pyridin-2-yloxy)-5-thiophen-2-yl-phenyl]-acryloyl}-benzenesulfonamide]",164 to 165 °C
8,"NS(=O)(=O)c1ccc(C(=O)/C=C/c2cccc(C3CC=CO3)c2)cc1 (centres unmarked) [Example 119, 4-{3-[3E-(2,3-Dihydro-furan-2-yl)-phenyl]-acryloyl}-benzenesulfonamide]",152 to 153 °C
9,"COc1cc(OCCC2CCCN2C)c(/C=C/C(=O)c2ccc(C(=O)O)cc2)cc1-c1cccs1.Cl (centres unmarked) [Example 73, 4-(3E-{4-Methoxy-2-[2-(1-methyl-pyrrolidin-2-yl)-ethoxy]-5-thiophen-2-yl-phenyl}-acryloyl)-benzoic acid, hydrochloride]",206 to 208 °C
10,"COc1cc(OCC(=O)N2CCOCC2)c(/C=C/C(=O)c2ccc(C(=O)O)cc2)cc1-c1cccs1 [Example 72, 4-{3E-[4-Methoxy-2-(2-morpholin-4-yl-2-oxo-ethoxy)-5-thiophen-2-yl-phenyl]-acryloyl}-benzoic acid]",231 to 233 °C
11,"COc1cc(OCc2nnn[nH]2)c(/C=C/C(=O)c2ccc(S(N)(=O)=O)cc2)cc1-c1cccs1 [Example 89, 4-{3E-[4-Methoxy-2-(1H-tetrazol-5-ylmethoxy)-5-thiophen-2-yl-phenyl]-acryloyl}-benzenesulfonamide]",163 to 164 °C (dec.)
12,"COc1cc(OCC(N)=O)c(/C=C/C(=O)c2ccc(C(=O)O)cc2)cc1-c1cccs1 [Example 71, 4-[3E-(2-Carbamoylmethoxy-4-methoxy-5-thiophen-2-yl-phenyl)-acryloyl]-benzoic acid]",235 °C (dec.)
13,COc1cc(OCCN2CCOCC2)c(/C=C/C(=O)c2ccc(S(N)(=O)=O)cc2)cc1-c1cccs1.Cl,235 °C (dec.)
14,"COc1cc(OC)c(-c2nncn2CC(C)C)cc1/C=C/C(=O)c1ccc(S(N)(=O)=O)cc1 [Example 109, 4-{3E-[5-(4-Isobutyl-4H-[1,2,4]triazol-3-yl)-2,4-dimethoxy-phenyl]-acryloyl}-benzenesulfonamide]",> 240 °C
15,"COc1cc(OC)c(-c2c[nH]c(C3CC3)n2)cc1/C=C/C(=O)c1ccc(C(=O)O)cc1.Cl [Example 105, 4-{3E-[5-(2-Cyclopropyl-1H-imidazol-4-yl)-2,4-dimethoxy-phenyl]-acryloyl}-benzoic acid, hydrochloride]",> 240 °C
16,"COc1cc(OC)c(-c2cc3ccccc3n2C)cc1/C=C/C(=O)c1ccc(C(=O)O)cc1 [Example 116, 4-{3E-[2,4-Dimethoxy-5-(1-methyl-1H-indol-2-yl)-phenyl]-acryloyl}-benzoic acid]",157 to 160 °C
17,"COc1cc(OC(C)(C)C(=O)O)c(/C=C/C(=O)c2ccc(S(N)(=O)=O)cc2)cc1-c1cccs1 [Example 82, 2-{5-Methoxy-2-[3-oxo-3-(4-aminosulfonyl-phenyl)-E-propenyl]-4-thiophen-2-yl-phenoxy}-2-methyl-propionic acid]",164 to 165 °C
18,"COc1cc(OC)c(-c2cccnc2)cc1/C=C/C(=O)c1ccc(S(N)(=O)=O)cc1 [Example 104, 4-[3E-(2,4-Dimethoxy-5-pyridin-3-yl-phenyl)-acryloyl]-benzenesulfonamide]",253 to 255 °C
19,"COc1cc(OC)c(-c2cc3ccccc3s2)cc1/C=C/C(=O)c1ccc(S(=O)(=O)c2ccccc2)cc1 [Example 107, 1-(4-Benzenesulfonyl-phenyl)-3E-(5-benzo[b]thiophen-2-yl-2,4-dimethoxy-phenyl)-propenone]",127 to 128 °C
20,"O=C(O)CNC(=O)Nc1ccc(C(=O)/C=C/c2ccc(-c3cccs3)cc2)cc1 [Example 97, 4(3E-{4-[3-(4-Thiophen-2-yl-phenyl)-acryloyl]-phenyl}-ureido)-acetic acid]",222 to 225 °C
